Reference: patent publication US20260355325A1, “DIMER COMPOUNDS” (KESMALEA THERAPEUTICS LIMITED, priority 2023, published 2026)

Target: T1, BRD4 (Homo sapiens, UniProt O60885)
T1 construct: Flp-In LgBiT HEK293 cells; lytic luminescence degradation readout
Assay: BRD4 HiBiT Assay (degradation of endogenous BRD4 in HiBiT knock-in Flp-In LgBiT HEK293 cells)
Format: cell-based
Details: BRD4 degradation in cells at 6-hour timepoint
Description: The purpose of the BRD4 HiBiT Assay was to assess the binding affinity of the dimer to BRD4 and subsequent protein degradation.
BRD4 HiBiT cells (Flp-In™ LgBiT and KI HiBiT) were generated by first creating a Flp-In™293 stable cell line, transfecting in the pFRT serial vector containing an integrated Flp recombination target (FRT) site (Thermo Fisher Scientific, Waltham, MA) to HEK293 cells (ATCC, Manassas, VA). The LgBiT expression sequence (Promega Corporation, Madison, WA) was then introduced into the genome via Flp recombinase-mediated DNA recombination at the FRT site. HiBiT sequence (Promega Corporation, Madison, WA) was then knocked in to the endogenous BRD4 protein in the Flp-In™ LgBiT HEK293 cells and successful clones verifying by sequencing. Work on BRD4 HiBiT cell line was performed under license from Promega Corporation (Madison, WA). Cells were maintained in DMEM (Invitrogen™, Waltham, MA) supplemented with 10% FBS (AusGeneX, Molendinar, Australia) and 1% penicillin/streptomycin (Invitrogen™, Waltham, MA) in a humidified incubator at 5% CO2, 37° C.
Compounds were dissolved in DMSO (10 mM), serially diluted from 10 mM to 1.5 nM, and pre-incubated for 2 hours. Exponentially growing cells were seeded at 1×10^4 cells per well of 384 well plate (Corning, New York #3570). Cells were treated with compound for 6 or 48 hours. Following treatment, Nano-Glo® HiBiT Lytic Detection reagent (Promega Corporation, Madison, WA) was added according to manufacturer's instructions, and signal read using BMG CLARIOstar plate reader (BMG Labtech, Ortenburg, Germany). Each data point was performed in duplicate for every experiment. A DC50 value was calculated from linear regression analysis of the plots.

DC50 [nM] | SMILES
< 100 | Cc1sc2c(c1C)C(c1ccc(Cl)cc1)=N[C@@H](CC(=O)NCC[C@]13OB(c4ccccc4CCCC(=O)Nc4cccc5c4C(=O)N(C4CCC(=O)NC4=O)C5=O)O[C@H]1C[C@H]1C[C@@H]3C1(C)C)c1nnc(C)n1-2 (mixture of isomers) [Example 4, 4-(2-((3aR,4R,6R,7aS)-3a-(2-(2-((S)-4-(4-chlorophenyl)-2,3,9-trimethyl-6H-thieno[3,2-f][1,2,4]triazolo[4,3-a][1,4]diazepin-6-yl)acetamido)ethyl)-5,5-dimethylhexahydro-4,6-methanobenzo[d][1,3,2]dioxaborol-2-yl)phenyl)-N-(2-(2,6-dioxopiperidin-3-yl)-1,3-dioxoisoindolin-4-yl)butanamide]
< 100 | Cc1ncsc1-c1ccc([C@H](C)NC(=O)[C@@H]2C[C@@H](O)CN2C(=O)[C@H](c2cc(OCc3ccccc3B3O[C@@H]4[C@H]5CC[C@H](C5)[C@]4(CCCNC(=O)C[C@@H]4N=C(c5ccc(Cl)cc5)c5c(sc(C)c5C)-n5c(C)nnc54)O3)no2)C(C)C)cc1 (single isomer, unassigned) [Example 9]
< 100 | Cc1ncsc1-c1ccc(CNC(=O)[C@@H]2C[C@@H](O)CN2C(=O)C(c2cc(OCc3ccccc3B3O[C@@H]4C[C@@H]5C[C@@H](C5(C)C)[C@]4(CCNC(=O)C[C@@H]4N=C(c5ccc(Cl)cc5)c5c(sc(C)c5C)-n5c(C)nnc54)O3)no2)C(C)C)cc1 (single isomer, unassigned) [Example 13]
< 100 | Cc1ncsc1-c1ccc(CNC(=O)[C@@H]2C[C@@H](O)CN2C(=O)[C@@H](NC(=O)CCc2cccc(F)c2B2O[C@H]3C[C@H]4C[C@H](C4(C)C)[C@@]3(CCNC(=O)C[C@@H]3N=C(c4ccc(Cl)cc4)c4c(sc(C)c4C)-n4c(C)nnc43)O2)C(C)(C)C)cc1 [Example 3, (2S,4R)-1-((2S)-2-(3-(2-((3aR,4R,6R,7aS)-3a-(2-(2-((6S)-4-(4-chlorophenyl)-2,3,9-trimethyl-6H-thieno[3,2-f][1,2,4]triazolo[4,3-a][1,4]diazepin-6-yl)acetamido)ethyl)-5,5-dimethylhexahydro-4,6-methanobenzo[d][1,3,2]dioxaborol-2-yl)-3-fluorophenyl)propanamido)-3,3-dimethylbutanoyl)-4-hydroxy-N-(4-(4-methylthiazol-5-yl)benzyl)pyrrolidine-2-carboxamide]
< 100 | Cc1ncsc1-c1ccc(CNC(=O)[C@@H]2C[C@@H](O)CN2C(=O)[C@@H](NC(=O)CCc2ccccc2B2O[C@H]3C[C@H]4C[C@H](C4(C)C)[C@@]3(CCCNC(=O)C[C@@H]3N=C(c4ccc(Cl)cc4)c4c(sc(C)c4C)-n4c(C)nnc43)O2)C(C)(C)C)cc1 [Example 5, (2S,4R)-1-((S)-2-(3-(2-((3aR,4R,6R,7aS)-3a-(3-(2-((S)-4-(4-chlorophenyl)-2,3,9-trimethyl-6H-thieno[3,2-f][1,2,4]triazolo[4,3-a][1,4]diazepin-6-yl)acetamido)propyl)-5,5-dimethylhexahydro-4,6-methanobenzo[d][1,3,2]dioxaborol-2-yl)phenyl)propanamido)-3,3-dimethylbutanoyl)-4-hydroxy-N-(4-(4-methylthiazol-5-yl)benzyl)pyrrolidine-2-carboxamide]
< 100 | Cc1ncsc1-c1ccc([C@H](C)NC(=O)[C@@H]2C[C@@H](O)CN2C(=O)[C@@H](NC(=O)CCc2ccccc2B2O[C@H]3C[C@H]4C[C@H](C4(C)C)[C@@]3(CCCNC(=O)C[C@@H]3N=C(c4ccc(Cl)cc4)c4c(sc(C)c4C)-n4c(C)nnc43)O2)C(C)(C)C)cc1 [Example 7, (2S,4R)-1-((S)-2-(3-(2-((3aR,4R,6R,7aS)-3a-(3-(2-((S)-4-(4-chlorophenyl)-2,3,9-trimethyl-6H-thieno[3,2-f][1,2,4]triazolo[4,3-a][1,4]diazepin-6-yl)acetamido)propyl)-5,5-dimethylhexahydro-4,6-methanobenzo[d][1,3,2]dioxaborol-2-yl)phenyl)propanamido)-3,3-dimethylbutanoyl)-4-hydroxy-N—((S)-1-(4-(4-methylthiazol-5-yl)phenyl)ethyl)pyrrolidine-2-carboxamide]

Further lines, the molecule ahead of its results:

SMILES | DC50 [nM]
Cc1ncsc1-c1ccc(CNC(=O)[C@@H]2C[C@@H](O)CN2C(=O)[C@@H](NC(=O)CCc2ccccc2B2O[C@H]3C[C@H]4C[C@H](C4(C)C)[C@@]3(CCNC(=O)C[C@@H]3N=C(c4ccc(Cl)cc4)c4c(sc(C)c4C)-n4c(C)nnc43)O2)C(C)(C)C)cc1 [Example 1, (2S,4R)-1-((S)-2-(3-(2-((3aR,4R,6R,7aS)-3a-(2-(2-((S)-4-(4-chlorophenyl)-2,3,9-trimethyl-6H-thieno[3,2-f][1,2,4]triazolo[4,3-a][1,4]diazepin-6-yl)acetamido)ethyl)-5,5-dimethylhexahydro-4,6-methanobenzo[d][1,3,2]dioxaborol-2-yl)phenyl)propanamido)-3,3-dimethylbutanoyl)-4-hydroxy-N-(4-(4-methylthiazol-5-yl)benzyl)pyrrolidine-2-carboxamide] | < 100
Cc1sc2c(c1C)C(c1ccc(Cl)cc1)=N[C@@H](CC(=O)NCCC[C@]13OB(c4ccccc4CCCC(=O)Nc4cccc5c4C(=O)N(C4CCC(=O)NC4=O)C5=O)O[C@H]1C[C@H]1C[C@@H]3C1(C)C)c1nnc(C)n1-2 (stereo partly drawn) [Example 2, 4-(2-((3aR,4R,6R,7aS)-3a-(3-(2-((S)-4-(4-chlorophenyl)-2,3,9-trimethyl-6H-thieno[3,2-f][1,2,4]triazolo[4,3-a][1,4]diazepin-6-yl)acetamido)propyl)-5,5-dimethylhexahydro-4,6-methanobenzo[d][1,3,2]dioxaborol-2-yl)phenyl)-N-(2-(2,6-dioxopiperidin-3-yl)-1,3-dioxoisoindolin-4-yl)butanamide] | < 100
Cc1ncsc1-c1ccc([C@H](C)NC(=O)[C@@H]2C[C@@H](O)CN2C(=O)[C@@H](NC(=O)CCc2ccccc2B2O[C@H]3C[C@H]4C[C@H](C4(C)C)[C@@]3(CCNC(=O)C[C@@H]3N=C(c4ccc(Cl)cc4)c4c(sc(C)c4C)-n4c(C)nnc43)O2)C(C)(C)C)cc1 [Example 6, (2S,4R)-1-((S)-2-(3-(2-((3aR,4R,6R,7aS)-3a-(2-(2-((S)-4-(4-chlorophenyl)-2,3,9-trimethyl-6H-thieno[3,2-f][1,2,4]triazolo[4,3-a][1,4]diazepin-6-yl)acetamido)ethyl)-5,5-dimethylhexahydro-4,6-methanobenzo[d][1,3,2]dioxaborol-2-yl)phenyl)propanamido)-3,3-dimethylbutanoyl)-4-hydroxy-N—((S)-1-(4-(4-methylthiazol-5-yl)phenyl)ethyl)pyrrolidine-2-carboxamide] | < 100
Cc1sc2c(c1C)C(c1ccc(Cl)cc1)=N[C@@H](CC(=O)NCCC[C@@]13OB(c4ccccc4CCC4CN(c5ccc(N6CCC(=O)NC6=O)cc5)C4)O[C@@H]1C[C@@H]1C[C@H]3C1(C)C)c1nnc(C)n1-2 [Example 8, 2-((S)-4-(4-chlorophenyl)-2,3,9-trimethyl-6H-thieno[3,2-f][1,2,4]triazolo[4,3-a][1,4]diazepin-6-yl)-N-(3-((3aS,4S,6S,7aR)-2-(2-(2-(1-(4-(2,4-dioxotetrahydropyrimidin-1(2H)-yl)phenyl)azetidin-3-yl)ethyl)phenyl)-5,5-dimethyltetrahydro-4,6-methanobenzo[d][1,3,2]dioxaborol-3a(4H)-yl)propyl)acetamide] | < 100

Same assay, conditions: BRD4 degradation in cells at 48-hour timepoint

DC50 [nM] | SMILES
1000 to 10000 | Cc1cc(C(C(=O)N2C[C@H](O)C[C@H]2C(=O)NCc2ccc(Cl)cc2B2O[C@H]3C[C@H]4C[C@H](C4(C)C)[C@@]3(CCNC(=O)C[C@@H]3N=C(c4ccc(Cl)cc4)c4c(sc(C)c4C)-n4c(C)nnc43)O2)C(C)C)on1 (single isomer, unassigned) [Example 10]
1000 to 10000 | Cc1cc(C(C(=O)N2C[C@H](O)C[C@H]2C(=O)NCc2ccc(Cl)cc2OC[C@]23OB(c4ccccc4CCNC(=O)C[C@@H]4N=C(c5ccc(Cl)cc5)c5c(sc(C)c5C)-n5c(C)nnc54)O[C@H]2C[C@H]2C[C@@H]3C2(C)C)C(C)C)on1 (single isomer, unassigned) [Example 11]
1000 to 10000 | Cc1cc([C@H](C(=O)N2C[C@H](O)C[C@H]2C(=O)NCc2ccc(Cl)cc2OCCCB2O[C@H]3C[C@H]4C[C@H](C4(C)C)[C@@]3(CCNC(=O)C[C@@H]3N=C(c4ccc(Cl)cc4)c4c(sc(C)c4C)-n4c(C)nnc43)O2)C(C)C)on1 [Example 12, (2S,4R)—N-(4-chloro-2-(3-((3aR,4R,6R,7aS)-3a-(2-(2-((S)-4-(4-chlorophenyl)-2,3,9-trimethyl-6H-thieno[3,2-f][1,2,4]triazolo[4,3-a][1,4]diazepin-6-yl)acetamido)ethyl)-5,5-dimethylhexahydro-4,6-methanobenzo[d][1,3,2]dioxaborol-2-yl)propoxy)benzyl)-4-hydroxy-1-((R)-3-methyl-2-(3-methylisoxazol-5-yl)butanoyl)pyrrolidine-2-carboxamide]
